Data on nine compounds can be found in PubChem BioAssay (NCI).

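Test compounds were applied to cells in 96-well plates for 48 hours at 5 doses. GI50 = concentration required for 50% inhibition of growth. At the TGI there is no net growth.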

Test in all cases: inhibition of tumour cell growth, NCI panel, 48 h
Experiment [1] concerns MOLT-4 leukemia.
Experiment [2] concerns UO-31 renal.
In experiment [3] the test system is SK-OV-3 ovarian.
Experiment [4] concerns EKVX NSCLC.
Experiment [5] relates to MDA-MB-231 breast.
Experiment [6] deals with NCI-H522 lung.
The subject of experiment [7] is SR leukemia.
Experiment [8] deals with SK-MEL-5 melanoma.
Experiment [9] concerns NCI-H460 lung.
Experiment [10] has as its system HCC-2998 colon.

For `O=C(O)CC(CC(=O)O)n1cccc1`, the TGI in [1], in experiment [2], in experiment [3], in experiment [4], in [5] and in [6] was greater than 100 µM in each case. Besides, the TGI in experiment [7], in experiment [8] and in experiment [9] was greater than 100 µM in each case.
`Cc1ncc2c(n1)CCC1=C2OS(=O)(=O)CC1N(C)C` (configuration not stated): the TGI in experiment [1], in experiment [2], in experiment [3], in experiment [4], in experiment [5] and in experiment [6] was greater than 100 µM each time. Further, the TGI in experiment [7], in experiment [8] and in experiment [9] was greater than 100 µM in each case.
For the compound `Nc1ccccc1SC(CC(=O)c1ccccc1)c1c(Cl)cccc1Cl` (configuration not stated), the GI50 in experiment [1] was 3 µM; in experiment [2], 1.27 µM; in experiment [3], 12.1 µM; in experiment [5] it was 3.86 µM; in [6], 3.86 µM; in [7], 1.45 µM. The GI50 in experiment [10] is 2.61 µM; in [8] it was 9.17 µM; in experiment [9], 4.59 µM. For the same compound, the TGI worked out at 7.79 µM in experiment [1]; 4.64 µM in experiment [2]; 28.8 µM in [3]; 20.4 µM in experiment [5]; 12.6 µM in experiment [6]; 5.79 µM in experiment [7]. Further, the TGI in experiment [10] was 5.73 µM; in [8], 21.2 µM; in [9], 17.6 µM.
As to `O=[N+]([O-])c1cc2c(ccc3ccccc32)o1`, the GI50 in experiment [1] is 0.47 µM; in experiment [2] it was 0.403 µM; in experiment [3], 0.571 µM; in experiment [5], 0.442 µM; in [6], 0.563 µM; in experiment [7], 0.346 µM. Besides, the GI50 was 0.252 µM in [10], 0.141 µM in experiment [8] and 0.276 µM in experiment [9]. Besides, the TGI in [1] is 73.9 µM; in experiment [2], 2.82 µM; in experiment [3], 6.25 µM; in experiment [5], 2.89 µM; in [6] it was 2.18 µM; in experiment [7] it was greater than 39.9 µM. In addition, the TGI in experiment [10] stood at 0.823 µM; in experiment [8] it was 0.296 µM; in experiment [9], 1.06 µM.
`CCOC(=O)c1nc2sc(Cl)cn2c1/C=N/N=C(N)N`: the GI50 in experiment [1] is 22.8 µM; in [2] it was 18.3 µM; in experiment [3] it was 44.3 µM; in experiment [4] it was 26.1 µM; in experiment [5] it was 14.3 µM; in [6], 20.5 µM. In addition, the GI50 in [8] was 1.72 µM; in experiment [9], 28.2 µM. Further, the TGI in experiment [1] is greater than 100 µM; in experiment [2], 35.6 µM; in [3] it was 98.3 µM; in experiment [4] it was 61.6 µM; in [5], 37.2 µM; in [6], 47.1 µM. Further, the TGI in experiment [8] is greater than 23.1 µM; in experiment [9], greater than 59.6 µM.
With `COc1cccc(C2=C(c3cn(C)c4c(C)cccc34)C(=O)NC2=O)c1`, the GI50 in [1] was 16.3 µM; in experiment [2], greater than 20.2 µM; in [3], greater than 25 µM; in experiment [5], 24.5 µM; in experiment [6], greater than 18.2 µM; in experiment [7], greater than 19.6 µM. Further, the GI50 was greater than 25 µM in [10], 21.5 µM in experiment [8] and greater than 25 µM in [9]. In addition, the TGI in [1], in experiment [2], in [3], in [5], in experiment [6] and in [7] was greater than 25 µM in each case. For the same compound, the TGI in experiment [10], in experiment [8] and in [9] was greater than 25 µM in each case.
With `Cc1nc2ccccc2c(/C=C/c2ccc(F)cc2)c1C(=O)/C=C/c1ccccc1`, the GI50 was 1.74 µM in experiment [1]; 1.29 µM in experiment [2]; 4.72 µM in experiment [3]; 4.38 µM in experiment [4]; 2.24 µM in experiment [5]; 2 µM in experiment [6]. Also, the GI50 in experiment [10] was 1.76 µM; in experiment [8], 2.11 µM; in [9], 1.79 µM. For the same compound, the TGI was 6.57 µM in experiment [1]; 2.67 µM in experiment [2]; greater than 100 µM in experiment [3]; 43.5 µM in [4]; 6.33 µM in experiment [5]; 5.79 µM in experiment [6]. Also, the TGI in [10] came to 3.32 µM; in [8], 5.12 µM; in experiment [9] it was 3.71 µM.
On to `O=NN(CC(=O)NNc1ccccc1)CC(=O)NNc1ccccc1`, for which the GI50 in experiment [1] is 4.04 µM; in [2], 2.22 µM; in experiment [3] it was greater than 100 µM; in experiment [5], 3.54 µM; in experiment [6], 1.27 µM; in experiment [7], greater than 25.6 µM. Also, the values for the GI50 in experiment [10], in [8] and in experiment [9] were 4.89 µM, 8.67 µM and 4.34 µM, respectively. Besides, the TGI in experiment [1], in [2], in experiment [3], in [5], in [6] and in experiment [7] was greater than 100 µM in each case. In addition, the TGI in experiment [10], in experiment [8] and in experiment [9] was greater than 100 µM in each case.
`CCn1cnc(C[C@H](NC(=O)[C@@H](NC(=O)Nc2cc(C(F)(F)F)cc(C(F)(F)F)c2)C(C)(C)C)C(=O)OC)c1`: the GI50 in experiment [1], in experiment [2], in experiment [3], in [5], in [6] and in [7] was greater than 10 µM throughout. Also, the GI50 in [10], in experiment [8] and in experiment [9] was greater than 10 µM each time. Further, the TGI in experiment [1], in [2], in experiment [3], in experiment [5], in [6] and in experiment [7] was greater than 10 µM each time. The TGI in [10], in experiment [8] and in [9] was greater than 10 µM each time.
